Results reported in patent US12324568B2, “Mouthwash to deliver dyes for dental imaging” (BOARD OF SUPERVISORS OF LOUISIANA STATE UNIVERSITY AND …, priority 2020, dated 2025).
Where two headings read alike, the source gives them in different places.

Columns and labels:
[1] = tested on: rat molars (erupted P31, unerupted P14); conditions: rat model, previous work, cited from earlier work
[2] = tested on: rat molars (erupted P31, unerupted P14); experiment: ICG-assisted NIR dental imaging after subcutaneous injection in rat model; assay type: in vivo, Sprague Dawley rats
Procedure: (§1) Self-breed Sprague Dawley rats, including eight postnatal day 31 (P31) and two P21 rats for erupted molars and sixteen P14 rats for unerupted molars, were utilized. To simulate the mouthwash with living rats, 10 μL ICG solution (1 mg/ml) was pipetted into the mouth of two P31 rats in vivo, and the rats were euthanized after 2 minutes. The other two P21 went through the same in vivo mouthwash procedure and euthanized after 1 minute. In addition, the mandibles were dissected from another two P31 rats directly after euthanasia, then washed with 10 μL ICG (1 mg/ml) solution ex vivo for 10 minutes. For the subcutaneous injection, every two P31 rats were euthanized at each time points 10 minutes and 24 hours, for the ICG injection on the back (5 mg/kg body weight). For the unerupted molars, two rats were sacrificed 1 minute after in vivo mouthwash, and the same for the erupted molars. To study concentration effect on imaging, 0.1, 0.5, 1, and 5 mg/kg of ICG were injected into eight P14 rats (two rats for each dosage, and euthanized for each concentration 4 hours after injection). For P14 rats to study imaging windows, two rats were euthanized at 10 minutes, 4 hours and 48 hours for posting ICG injection (5 mg/kg) respectively.
The imaging system is depicted in FIG. 1(A). A 785 nm laser source shined to the mandibles with fiber and filters, a NIR camera received the videos, and videos were recorded by computer. The mandibles were then extracted and imaged using ICG-assisted endoscopic NIR dental imaging, as described in previous publications.^29-31 In the endoscopic imaging, an output fiber was connected to the endoscope with a camera.^30 All experiments were approved by the Institutional Animal Care and Use Committee (IACUC) of Louisiana State University (Protocol #16-117) and followed the ethical guidelines of animal care.
Meanwhile, endoscopic imaging provided clearer morphologies of the first and second molars than wide-field imaging. The lingual and occlusal cusps of the molars could be easily distinguished, especially for the mouthwash treatment (FIG. 1(B)). As described in previous work,^29, 30 the intensity-mean difference Dmean_diff (IMD) was used as the image contrast for the quantitative evaluation of the target and background. To further reveal the efficiency of the mouthwash and local injection, a sampling line (yellow lines in FIG. 1) covering both molar regions and the surrounding tissues was used to calculate the image contrast of the molar and surrounding tissues.

[3] = tested on: rat molars; experiment: ICG-assisted NIR dental imaging with in vivo mouthwash in living rats; design: species or system Sprague Dawley rats; conditions: rat model
Procedure: as §1, with “To study concentration effect on imaging, 0.1, 0.5, 1, and 5 mg/kg of ICG were injected into eight P14 rats (two rats for each dosage, and euthanized for each concentration 4 hours after injection). For P14 rats to study imaging windows, two rats were euthanized at 10 minutes, 4 hours and 48 hours for posting ICG injection (5 mg/kg) respectively.” left out
The imaging system is depicted in FIG. 1(A). A 785 nm laser source shined to the mandibles with fiber and filters, a NIR camera received the videos, and videos were recorded by computer. […]
Meanwhile, endoscopic imaging provided clearer morphologies of the first and second molars than wide-field imaging. […] As described in previous work,^29, 30 the intensity-mean difference Dmean_diff (IMD) was used as the image contrast for the quantitative evaluation of the target and background. […]

Compound: CC1(C)C(/C=C/C=C/C=C/C=C2\N(CCCCS(=O)(=O)O)c3ccc4ccccc4c3C2(C)C)=[N+](CCCCS(=O)(=O)[O-])c2ccc3ccccc3c21 [ICG, indocyanine green]
- imaging window ([1]; erupted molars): 4 h
- imaging window ([1]; unerupted molar): about 96 hours
- visibility of dental structures ([2]; erupted molars (P31 rat), 24 hours after ICG injection): no dental structures could be observed
- visibility of dental structures ([2]; erupted molars (P31 rat), subcutaneous injection, imaging window 10 minutes): clearly observable
- minimal dye dosage to achieve recognizable anatomical imaging ([2]; subcutaneous injection, P14 rats (FIG. 9)): 0.1 mg/kg (body weight)
- visibility of dental structures ([2]; unerupted molars (P14 rats), imaging window 48 hours): could still be observed
- time to achieve the same image contrast [3]: 1 to 2 min
